Assay results: ChEMBL document CHEMBL2311251, “Synthesis and structure-activity relationship of piperidine-derived non-urea soluble epoxide hydrolase inhibitors” (Bioorg Med Chem Lett, 2013)

Tests used:
[1] = biological target: T1, Bifunctional epoxide hydrolase 2 (Homo sapiens, UniProt P34913); assay: Inhibition of human sEH assessed as 6-methoxy-2-naphthaldehyde generation preincubated for 10 before addition of cyano(2-methyl-oxynaphthalen-6-yl)methyl trans-(3-phenyloxyran-2-yl) methyl carbonate by fluorescence analysis
T1 sequence (P34913 whole entry): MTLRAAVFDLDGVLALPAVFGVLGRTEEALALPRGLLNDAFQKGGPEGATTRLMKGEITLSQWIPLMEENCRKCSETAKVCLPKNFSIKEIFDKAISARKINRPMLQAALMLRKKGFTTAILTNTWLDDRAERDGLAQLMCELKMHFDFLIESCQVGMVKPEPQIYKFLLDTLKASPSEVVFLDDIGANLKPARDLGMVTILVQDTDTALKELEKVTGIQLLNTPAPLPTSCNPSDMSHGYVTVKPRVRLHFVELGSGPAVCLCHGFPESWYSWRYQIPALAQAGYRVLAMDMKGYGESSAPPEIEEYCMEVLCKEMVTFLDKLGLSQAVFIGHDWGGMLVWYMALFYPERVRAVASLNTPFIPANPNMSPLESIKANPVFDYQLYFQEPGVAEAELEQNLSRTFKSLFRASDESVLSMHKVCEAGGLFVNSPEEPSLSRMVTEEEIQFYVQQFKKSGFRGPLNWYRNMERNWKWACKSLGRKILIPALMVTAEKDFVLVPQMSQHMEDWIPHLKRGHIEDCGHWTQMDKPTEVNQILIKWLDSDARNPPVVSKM

Liver microsomes = assay: Half life in human liver microsomes after 90 mins by LC/MS analysis; assay type: ADME, Microsome; conditions: 1.5 h

| SMILES | IC50 [1] [nM] | t1/2 (Liver microsomes) [min] |
| --- | --- | --- |
| Cc1ccc(S(=O)(=O)N2CCC(C(=O)Nc3ccc4ncccc4c3)CC2)c(C)c1 | 13 |  |
| COC(=O)c1ccc2cc(NC(=O)C3CCN(S(=O)(=O)c4ccc(C)cc4C)CC3)ccc2c1 | 110 |  |
| Cc1ccc(S(=O)(=O)N2CCC(C(=O)Nc3ccc4c(c3)OCO4)CC2)c(C)c1 | 5.2 | 46 |
| Cc1ccc(S(=O)(=O)N2CCC(C(=O)NC3CC3)CC2)c(C)c1 |  | 180 |
| Cc1ccc(S(=O)(=O)N2CCC(C(=O)NC3CCCc4ccccc43)CC2)c(C)c1 (stereo unspecified) | 41 |  |
| Cc1ccc(S(=O)(=O)N2CCC(C(=O)Nc3ccccc3)CC2)c(C)c1 | 6.9 |  |
| Cc1ccc(S(=O)(=O)N2CCC(C(=O)Nc3ccccc3Cl)CC2)c(C)c1 | 8.7 |  |
| Cc1ccc(S(=O)(=O)N2CCC(C(=O)Nc3ccccc3C)CC2)c(C)c1 | 20 |  |
| COc1ccc(NC(=O)C2CCN(S(=O)(=O)c3ccc(C)cc3C)CC2)cc1 | 25 |  |
| Cc1ccc(S(=O)(=O)N2CCC(C(=O)Nc3ccc(Oc4ccccc4)cc3)CC2)c(C)c1 | 20 |  |
| Cc1ccc(S(=O)(=O)N2CCC(C(=O)Nc3ccc(C(=O)O)cc3)CC2)c(C)c1 | 17 |  |
| Cc1ccc(S(=O)(=O)N2CCC(C(=O)Nc3ccc([N+](=O)[O-])cc3)CC2)c(C)c1 | 12 |  |
| Cc1ccc(S(=O)(=O)N2CCC(C(=O)Nc3ccc(N4CCCCC4)c(C(N)=O)c3)CC2)c(C)c1 | 43 |  |
| Cc1ccc(S(=O)(=O)N2CCC(C(=O)Nc3ccc(C(C)C)cc3)CC2)c(C)c1 | 6.7 | 25 |
| Cc1ccc(S(=O)(=O)N2CCC(C(=O)Nc3ccc(S(=O)(=O)C(F)(F)F)cc3)CC2)c(C)c1 | 1.6 | 36 |
| Cc1ccc(S(=O)(=O)N2CCC(C(=O)Nc3ccc(F)cc3)CC2)c(C)c1 | 290 |  |
| Cc1ccc(S(=O)(=O)N2CCC(C(=O)Nc3ccc(Br)cc3)CC2)c(C)c1 | 45 |  |
| Cc1ccc(S(=O)(=O)N2CCC(C(=O)Nc3ccc(Cl)c(C(F)(F)F)c3)CC2)c(C)c1 | 78 |  |
| Cc1ccc(S(=O)(=O)N2CCC(C(=O)Nc3ccc4ccccc4c3)CC2)c(C)c1 | 8.3 | 8.7 |
| Cc1ccc(S(=O)(=O)N2CCC(C(=O)Nc3cnc4ccccc4c3)CC2)c(C)c1 | 2.3 |  |
| Cc1ccc(S(=O)(=O)N2CCC(C(=O)Nc3cccc4cnccc34)CC2)c(C)c1 | 23 | 220 |

| SMILES | IC50 [1] [nM] | t1/2 (Liver microsomes) [min] |
| --- | --- | --- |
| Cc1ccc(S(=O)(=O)N2CCC(C(=O)Nc3ccc4cc(C(=O)O)ccc4c3)CC2)c(C)c1 | 0.6 | 36 |
| COc1cc2c(cc1NC(=O)C1CCN(S(=O)(=O)c3ccc(C)cc3C)CC1)OCO2 | 30000 |  |
| Cc1ccc(S(=O)(=O)N2CCC(C(=O)N[C@H]3C[C@@H]3c3ccccc3)CC2)c(C)c1 | 6900 |  |
| Cc1ccc(S(=O)(=O)N2CCC(C(=O)NC3CCCC3)CC2)c(C)c1 |  | 14 |
| Cc1ccc(S(=O)(=O)N2CCC(C(=O)NC34CC5CC(CC(C5)C3)C4)CC2)c(C)c1 | 1.7 | 14 |
| Cc1ccc(S(=O)(=O)N2CCC(C(=O)Nc3ccccc3F)CC2)c(C)c1 | 1.1 |  |
| Cc1ccc(S(=O)(=O)N2CCC(C(=O)Nc3ccccc3Br)CC2)c(C)c1 | 0.6 |  |
| Cc1ccc(S(=O)(=O)N2CCC(C(=O)Nc3ccccc3O)CC2)c(C)c1 | 1.2 | 2.4 |
| Cc1ccc(S(=O)(=O)N2CCC(C(=O)Nc3ccc(O)cc3)CC2)c(C)c1 | 0.4 |  |
| COC(=O)c1ccc(NC(=O)C2CCN(S(=O)(=O)c3ccc(C)cc3C)CC2)cc1 | 8.5 | 3.7 |
| Cc1ccc(S(=O)(=O)N2CCC(C(=O)Nc3ccc(OC(F)(F)F)cc3)CC2)c(C)c1 | 23 |  |
| Cc1ccc(S(=O)(=O)N2CCC(C(=O)Nc3ccc(N4CCCCC4)cc3)CC2)c(C)c1 | 20 |  |
| Cc1ccc(S(=O)(=O)N2CCC(C(=O)Nc3ccc(N4CCOCC4)cc3)CC2)c(C)c1 | 250 |  |
| Cc1ccc(S(=O)(=O)N2CCC(C(=O)Nc3ccc(C(F)(F)F)cc3)CC2)c(C)c1 | 30 |  |
| Cc1ccc(S(=O)(=O)N2CCC(C(=O)Nc3cccc(C(F)(F)F)c3)CC2)c(C)c1 | 640 |  |
| Cc1ccc(S(=O)(=O)N2CCC(C(=O)Nc3ccc(Cl)cc3)CC2)c(C)c1 | 2200 |  |
| Cc1ccc(S(=O)(=O)N2CCC(C(=O)Nc3cc(Cl)cc(Cl)c3)CC2)c(C)c1 | 25 |  |
| Cc1ccc(S(=O)(=O)N2CCC(C(=O)Nc3ccc(Cl)c(Cl)c3)CC2)c(C)c1 | 55 |  |
| Cc1ccc(S(=O)(=O)N2CCC(C(=O)Nc3cccc4cccnc34)CC2)c(C)c1 | 6 | 11 |
| Cc1ccc(S(=O)(=O)N2CCC(C(=O)NCC(C)C)CC2)c(C)c1 | 18 |  |
